Results published in ChEMBL document CHEMBL1132523, “Preventive effect of sesquiterpenes from bay leaf on blood ethanol elevation in ethanol-loaded rat: structure requirement and suppression of gastric emptying” (1999).
Where “and” joins values, the source holds several entries; their conditions need not be identical. Equal values may be shown once.

Key:
Rattus norvegicus [1] = assay: Effect of compound (25 mg/kg) on Blood Ethanol level in Ethanol loaded rats after 30 minutes; format: functional
Rattus norvegicus [2] = assay: Effect of compound (50 mg/kg) on Blood Ethanol level in Ethanol loaded rats after 1 hr; format: functional
Rattus norvegicus [3] = assay: Effect of compound (50 mg/kg) on Blood Ethanol level in Ethanol loaded rats after 2 hr; format: functional
Rattus norvegicus [4] = assay: Effect of compound (25 mg/kg) on Blood Ethanol level in Ethanol loaded rats after 2 hr; format: functional
Rattus norvegicus [5] = assay: Effect of compound (25 mg/kg) on Blood Ethanol level in Ethanol loaded rats after 1 hr; format: functional
Rattus norvegicus [6] = assay: Effect of compound (50 mg/kg) on Blood Ethanol level in Ethanol loaded rats after 30 minutes; format: functional
Rattus norvegicus [7] = assay: Effect of compound (25 mg/kg) on Serum glucose level in glucose loaded rats after 1 hr; format: functional, organism-based
Rattus norvegicus [8] = assay: Effect of compound (25 mg/kg) on Serum glucose level in glucose loaded rats after 2 hr; format: functional, organism-based
Rattus norvegicus [9] = assay: Effect of compound (50 mg/kg) on Serum glucose level in glucose loaded rats after 1 hr; format: functional, organism-based
Rattus norvegicus [10] = assay: Effect of compound (25 mg/kg) on Gastric emptying time in Ethanol loaded rats after 30 minutes; format: functional, Stomach
Rattus norvegicus [11] = assay: Effect of compound (50 mg/kg) on Gastric emptying time in Ethanol loaded rats after 30 minutes; format: functional, Stomach
Rattus norvegicus [12] = assay: Effect of compound (50 mg/kg) on Serum glucose level in glucose loaded rats after 2 hr; format: functional, organism-based
Rattus norvegicus [13] = assay: Effect of compound (25 mg/kg) on Serum glucose level in glucose loaded rats after 30 minutes; format: functional, organism-based
Rattus norvegicus [14] = assay: Effect of compound (50 mg/kg) on Gastric emptying in Ethanol loaded rats after 30 minutes; format: functional, Stomach
Rattus norvegicus [15] = assay: Effect of compound (50 mg/kg) on Serum glucose level in glucose loaded rats after 30 minutes; format: functional, organism-based
Rattus norvegicus [16] = assay: Effect of compound (25 mg/kg) on Gastric emptying in Ethanol loaded rats after 30 minutes; format: functional, Stomach
Rattus norvegicus [17] = assay: Effect of compound (12.5 mg/kg) on Blood Ethanol level in Ethanol loaded rats after 1 hr; format: functional
Rattus norvegicus [18] = assay: Effect of compound (12.5 mg/kg) on Gastric emptying in Ethanol loaded rats after 30 minutes; format: functional, Stomach
Rattus norvegicus [19] = assay: Effect of compound (12.5 mg/kg) on Blood Ethanol level in Ethanol loaded rats after 30 minutes; format: functional
Rattus norvegicus [20] = assay: Effect of compound (12.5 mg/kg) on Blood Ethanol level in Ethanol loaded rats after 2 hr; format: functional

| SMILES | Blood ethanol concentration (Rattus norvegicus [1]) | Activity (Rattus norvegicus [2]) | Blood ethanol level (Rattus norvegicus [3]) | Activity (Rattus norvegicus [4]) | Activity (Rattus norvegicus [5]) | Blood ethanol concentration (Rattus norvegicus [6]) | Serum glucose (Rattus norvegicus [7]) | Serum glucose (Rattus norvegicus [8]) | Serum glucose (Rattus norvegicus [9]) | Inhibition (Rattus norvegicus [10]) | Inhibition (Rattus norvegicus [11]) | Serum glucose (Rattus norvegicus [12]) | Serum glucose (Rattus norvegicus [13]) | Inhibition (Rattus norvegicus [14]) | Serum glucose (Rattus norvegicus [15]) | Inhibition (Rattus norvegicus [16]) | Activity (Rattus norvegicus [17]) | Inhibition (Rattus norvegicus [18]) | Activity (Rattus norvegicus [19]) | Activity (Rattus norvegicus [20]) |
| --- | --- | --- | --- | --- | --- | --- | --- | --- | --- | --- | --- | --- | --- | --- | --- | --- | --- | --- | --- | --- |
| C=C1CCC[C@]2(C)CC[C@@H](C(C)(C)O)C[C@@H]12 [BETA-EUDESMOL] | 0.79 mg/mL | 0.73 mg/mL | 0.2 mg/mL | 0.2 mg/mL | 0.7 mg/mL | 0.77 mg/mL | – | – | – | – | – | – | – | – | – | – | – | – | – | – |
| C=C1C(=O)O[C@@H]2/C=C(\C)CC/C=C(\C)CC[C@@H]12 [COSTUNOLIDE] | 0.23 mg/mL | 0.21 mg/mL | 0.19 mg/mL | 0.1 mg/mL | 0.2 mg/mL | 0.18 mg/mL | 151 mg/dL | 117 mg/dL | 150 mg/dL | 25.5% | 42.1% | 112 mg/dL | 179 mg/dL | 48.2% | 171 mg/dL | 62.1% | – | – | – | – |
| C=C1CC[C@H]2C(=C)CC[C@H]3C(=C)C(=O)O[C@@H]3[C@@H]12 [DEHYDROCOSTUSLACTONE] | 0.57 mg/mL | 0.23 mg/mL | 0.19 mg/mL | 0.2 mg/mL | 0.4 mg/mL | 0.2 mg/mL | – | – | – | – | – | – | – | – | – | – | – | – | – | – |
| C=C1C(=O)O[C@@H]2[C@H]3C(C)=CC[C@@H](O)[C@]3(C)CC[C@@H]12 [SANTAMARIN] | 0.4 mg/mL | 0.21 mg/mL | 0.18 mg/mL | 0.2 mg/mL | 0.43 mg/mL | 0.2 mg/mL | – | – | – | – | – | – | – | – | – | – | – | – | – | – |
| C=C1CCOC1=O [TULIPALINE A] | 0.09 mg/mL | 0.1 mg/mL | 0.01 mg/mL | 0.01 mg/mL | 0.17 mg/mL | 0.04 mg/mL | – | – | – | – | – | – | – | – | – | 33.5% and 57.2% | 0.7 mg/mL | 47.9% and 38.8% | 0.32 mg/mL | 0.39 mg/mL |
